Drawing on ChEMBL document CHEMBL1145276, “Synthesis and biological evaluation of 6,7-disubstituted 4-aminopyrido[2,3-d]pyrimidines as adenosine kinase inhibitors” (Bioorg Med Chem Lett, 2005), this text covers IC50 for 26 compounds.

For test [1], the target named is T1, Adenosine kinase (Homo sapiens, UniProt P55263). Briefly: Inhibitory concentration against Adenosine Kinase (enzyme).
The target in test [2] is T1, Adenosine kinase. Briefly: Inhibitory concentration against Adenosine Kinase (intact cells).

Where only a bound is given, the exact number is not on record here.

T1 sequence (P55263 whole entry): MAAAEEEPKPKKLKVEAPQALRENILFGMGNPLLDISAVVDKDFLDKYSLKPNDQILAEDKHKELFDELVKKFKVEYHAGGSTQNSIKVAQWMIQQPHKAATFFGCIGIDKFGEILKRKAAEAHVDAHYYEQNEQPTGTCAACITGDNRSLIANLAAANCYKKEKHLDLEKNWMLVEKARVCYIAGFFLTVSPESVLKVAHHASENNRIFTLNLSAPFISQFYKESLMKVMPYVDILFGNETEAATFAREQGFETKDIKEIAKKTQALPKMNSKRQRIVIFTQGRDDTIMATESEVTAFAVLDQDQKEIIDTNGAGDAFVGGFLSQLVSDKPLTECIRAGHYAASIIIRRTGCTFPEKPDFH

Usually IC50 stands for the point on the concentration scale where inhibition reaches its midpoint. Higher therefore signals a need for much substance. With `Nc1ncnc2nc(-c3nccs3)c(Cc3cccc(Br)c3)cc12`, 900 nM corresponded to half-maximal inhibition against Adenosine kinase [1] (IC50). With `CN(C)c1ccc(-c2cc3c(N)ncnc3nc2-c2ccc(N(C)C)cc2)cc1`, the values for the concentration for half-maximal inhibition (IC50) against Adenosine kinase [1] and against Adenosine kinase [2] were 183 nM and 367 nM, respectively.

In the case of `CN(C)c1ccc(-c2nc3ncnc(N)c3cc2Cc2ccccc2)cc1`, the results for the IC50 on Adenosine kinase [1] and at Adenosine kinase [2] were 114 nM and 650 nM, respectively. `COc1ccc(-c2cc3c(N)ncnc3nc2-c2ccc(N(C)C)cc2)cc1Br`: the IC50 against Adenosine kinase [1] was found to be 33 nM; on Adenosine kinase [2] it was 225 nM. With `Cc1ccc(-c2cc3c(N)ncnc3nc2-c2cc3ccccc3o2)cc1`, the IC50 at Adenosine kinase [1] was > 1000 nM. At Adenosine kinase [1], `CN(C)c1ccc(-c2nc3ncnc(N)c3cc2-c2ccccc2)cc1` had an IC50 of 350 nM. In the case of `CN(C)c1ccc(-c2cnc3c(N)ncnc3n2)cc1`, on Adenosine kinase [1], half-maximal inhibition (IC50) required 440 nM. In the case of `CN(C)c1ccc(-c2nc3ncnc(N)c3cc2-c2cccc(Br)c2)cc1`, the figures for the IC50 against Adenosine kinase [1] and on Adenosine kinase [2] were 70 nM and > 1000 nM, respectively. Taken in the same sequence, the figures for `CCCCc1cc2c(N)ncnc2nc1-c1cccs1` were 11 nM and 767 nM. In the case of `Cc1ccc(-c2cc3c(N)ncnc3nc2-c2cccs2)cc1`, the half-maximal inhibitory concentration (IC50) is 9 nM against Adenosine kinase [1] and 800 nM at Adenosine kinase [2]. Take `Cc1ccc(-c2cc3c(N)ncnc3nc2-c2ccc(/C=C/c3ccccn3)cc2)cc1`: at Adenosine kinase [1], the IC50 was found to be 115 nM. Same read-out and setting: then `COc1cccc(-c2cc3c(N)ncnc3nc2-c2ccc(N(C)C)cc2)c1`, with > 1000 nM. In the case of `CN(C)c1ccc(-c2cc3c(N)ncnc3nc2-c2ccncc2)cc1`, the IC50 against Adenosine kinase [1] amounted to 467 nM; on Adenosine kinase [2], 4170 nM. As for `CN(C)c1ccc(-c2ccc3c(N)ncnc3n2)cc1`, the IC50 on Adenosine kinase [1] is 773 nM; on Adenosine kinase [2], > 10000 nM. For `Cc1ccc(-c2cc3c(N)ncnc3nc2-c2ccsc2)cc1`, the IC50 at Adenosine kinase [1] is 47 nM; on Adenosine kinase [2], > 1000 nM. In the case of `Cc1ccc(-c2cc3c(N)ncnc3nc2-c2ccc(-c3cncnc3)cc2)cc1`, the IC50 against Adenosine kinase [1] was found to be 180 nM. With `COc1ccc(-c2cc3c(N)ncnc3nc2-c2ccc(N(C)C)cc2)cc1OC`, the IC50 against Adenosine kinase [1] worked out at 45 nM; on Adenosine kinase [2], 350 nM. `CN(C)c1ccc(-c2nc3ncnc(N)c3cc2CCc2ccccc2)cc1` returned an IC50 on Adenosine kinase [1] of 433 nM. As for `COc1ccc(-c2cc3c(N)ncnc3nc2-c2cccs2)cc1OC`, the IC50 at Adenosine kinase [1] worked out at 38 nM; against Adenosine kinase [2] it was 300 nM. For `CN(C)c1ccc(-c2nc3ncnc(N)c3cc2CCCc2ccccc2)cc1`, half-maximal inhibition against Adenosine kinase [1] (IC50) was put at 2230 nM. For `CCCCCc1cc2c(N)ncnc2nc1-c1ccc(N(C)C)cc1`, the IC50 came to 30 nM on Adenosine kinase [1] and 700 nM at Adenosine kinase [2].

Consider `Nc1ncnc2nc(-c3cccs3)c(Cc3cccc(Br)c3)cc12`, for which the IC50 at Adenosine kinase [1] turned out to be 3.8 nM; against Adenosine kinase [2], 650 nM.

Turning to `CC(C)Cc1cc2c(N)ncnc2nc1-c1ccc(N(C)C)cc1`, the IC50 on Adenosine kinase [1] is 200 nM; on Adenosine kinase [2], > 1000 nM. Taken in the same sequence, the figures for `CN(C)c1ccc(-c2nc3ncnc(N)c3cc2-c2ccc(Br)cc2)cc1` were 20 nM and > 1000 nM. `COc1ccc(-c2cc3c(N)ncnc3nc2-c2ccc(N(C)C)cc2)cc1` returned an IC50 against Adenosine kinase [1] of 92 nM. `COc1ccc(-c2cc3c(N)ncnc3nc2-c2cccs2)cc1Br`: the values for the IC50 against Adenosine kinase [1] and at Adenosine kinase [2] were 8 nM and 375 nM, respectively.
